This is an account of results in patent US5593835A, “Methods and kits for RNA binding compounds” (President and Fellows of Harvard College, priority 1995, dated 1997).

Experiment [1] deals with TAR region of HIV RNA. Kind of experiment: Fluorescence binding and competitive binding to TAR RNA. Particulars: competition, 100 nM RNA, 15 nM fluorescent tobramycin, 20° C., pH 7.4; read-out: Dissociation Constant (KD) TAR RNA. On the procedure: (§1) In order to quantitatively determine whether fluorescently labelled tobramycin and other antibiotics bind directly to the RRE region and/or to other regions of the HIV RNA, and with what affinity, the RRE and TAR regions of HIV RNA were prepared and used in the method of the invention as target RNAs.
(§2) In other competitive binding studies, TAR or RRE RNA was added at a constant concentration of 100 nM±5% and PYT at 15 nM. Different concentrations of competitive antibiotic (tobramycin (o-60 μM), gentamicin C (0-100 μM), neomycin B (0-4 μM), or lividomycin A (0-100 μM) or Rev protein (0-6 μM) were mixed with constant concentrations of RNA (100 nM TAR or RRE) and C1PYT (15 nM), in Binding buffer (140 mM NaCl, 5 mM KCl, 1 mM MgCl2, 20 mM HEPES, pH 7.4), 2 ml total volume, for 1-5 min. at 20° C. in a semimicrocell cuvette. The fluorescence was measured on a Perkin-Elmer Model 512 double beam fluorescence spectrophotometer. The excitation wavelength used was 330 nm. The intensities of fluorescence emission at 390 nm were used to calculate dissociation constants. Generally 8 to 12 points were used for calculation.
Competition binding measurements of antibiotics with RNA and PYT were performed at constant concentrations of PYT and RNA by monitoring fluorescence intensity changes as a function of changing concentrations of the antibiotics (a standard fluorescence curve). […]

Experiment [2] has as its target RRE region of HIV RNA. Kind of experiment: Fluorescence binding and competitive binding to RRE RNA. Particulars: competition, 100 nM RNA, 15 nM fluorescent tobramycin, 20° C., pH 7.4; read-out: Dissociation Constant (KD) RRE RNA. On the procedure: as §1
For binding studies, different concentrations of RRE RNA (from 0 to 300 nm) were mixed with a constant concentration (15 nM) PYT in Binding buffer (140 mM NaCl, 1 mM MgCl2, 20 mM HEPES, pH 7.4), 2 ml total volume, for 1-5 min. at 20° C. in a semimicro-cell cuvette. The fluorescence was measured on a Perkin-Elmer Model 512 double beam fluorescence spectrophotometer. The excitation wavelength used was 330 nm. The intensities of fluorescence emission at 390 nm were used to calculate dissociation constants. Generally 8 to 12 points were used for calculation.
as §2
Wild type and mutant RRE RNAs were transcribed in vitro by T7 RNA polymerase using synthetic oligonucleotide templates, as described by Milligan et al. (Meth. Enzymol. (1989) 180: 51-62).
(§3) Competition binding measurements of antibiotics with RNA and PYT were performed at constant concentrations of PYT and RNA by monitoring fluorescence intensity changes as a function of changing concentrations of the antibiotics (a standard fluorescence curve). The KD s for the antibiotics were calculated by the curve fitting of the fluorescence intensity of PYT as a function of antibiotic concentration, using the following equation: […]

Experiment [3] has as its target J6a1 RNA (SEQ ID NO: 5), synthetically derived from the predicted structures. Put plainly: Fluorescence binding measurements, J6a1 RNA. On the procedure:
(§4) The binding of tobramycin to two cloned RNAs X1 (SEQ ID NO:2) and J6 (SEQ ID NO:5), representative of both classes of consensus sequences, was measured using the fluorescence techniques described in the exemplification.
*synthetically derived from the predicted structures
(§5) Steady state fluorescence measurements were performed on a double beam fluorescence spectrometer (Perkin-Elmer Model 512, Norwalk, Conn.). The excitation wavelength was 341 nm. All measurements were done at 20° C. in 140 mM NaCl, 5 mM KCl, 1 mM CaCl2, 1 mM MgCl2, and 20 mM HEPES, pH 7.4. The KD of the PYT and the RNA aptamer was calculated by the curve fitting of the fluorescence intensity as a function of RNA concentration, using the following equation
as §3

For experiment [4], the target named is J6 RNA (SEQ ID NO:5). Put plainly: Fluorescence binding measurements, J6 RNA. On the procedure: as §4, §5, §3
For experiment [5], the system named is RNA pool transcribed from DNA after the sixth selection, bound to tobramycin affinity column. Put plainly: Elution of bound RNA from tobramycin affinity column. The experiment is classed as binding. Particulars: 3 column volumes of 10 mM tobramycin. From the text:
Elution patterns of the RNA from the columns are shown in FIG. 4 for the second and sixth selections. Over 6 cycles of selection, the percentages of RNA specifically eluted with tobramycin were <0.1%, 3.0%, 2.9%, 26%, 55%, and 82%. […] The RNA pool transcribed from DNA after the sixth selection could not be eluted from the affinity column, even after 100 column volumes of selection buffer.
An N-hydroxysuccinimide Affi-Gel affinity column (Bio-Rad, Hercules, Calif.) was derivatized with either 20 μmoles or 0.075 μmoles tobramycin per ml of gel to generate the affinity columns. Excess N-hydroxysuccinimide linkages were blocked by adding 1M ethanolamine. The resulting column served as the support for the RNA selections. The tobramycin concentration on column was estimated as about 15 mM. Selections were performed in 1 ml column volumes in a buffer (selection buffer) containing 140 mM NaCl, 5 mM KCl, 1 mM CaCl2, 1 mM MgCl2, and 20 mM Tris acetate, pH 7.4 (Bock et al. (1992) Nature 355: 564-566). A 1 ml Affi-Gel 10 pre-column treated with ethanolamine was used in all selections.
The original double stranded DNA pool was constructed by large scale PCR amplification of the synthesized 109mer random DNA pool (Oligos, Etc., Inc., Wilsonville, Oreg.) containing 60 random nucleotides. […]

The mark [6] stands for this setting: K1 - high affinity, read-out: Dissociation Constants K1(TOB).
Setting [7] is: K2 - low affinity, read-out: Dissociation Constants K2(TOB).

Read-outs that look alike come from different tables or passages of the source.

For the molecule `NC[C@H]1O[C@H](O[C@H]2[C@H](O)[C@@H](O[C@H]3O[C@H](CO)[C@@H](O)[C@H](N)[C@H]3O)[C@H](N)C[C@@H]2N)[C@H](N)C[C@@H]1O` [tobramycin], the Kd in experiment [1] is 19100 ± 1100 nM; in experiment [2], 2320 ± 280 nM; in experiment [3] (setting [6]) it was 9 ± 3 nM; in experiment [3] (setting [7]) it was 2700 ± 300 nM; in experiment [4] (setting [6]), 2 ± 1 nM; in experiment [4] (setting [7]) it was 6000 ± 400 nM. In experiment [5], the “RNA eluted from tobramycin affinity column” value was 96%.
